Experiment: Solubility in solvents (PGME or PGMEA) commonly used in semiconductor device production
Format: physicochemical
Conditions: for Solubility (g/100 g-PGMEA): solvent propylene glycol 1-monomethyl ether 2-acetate (PGMEA); for Solubility (g/100 g-PGME): solvent propylene glycol 1-monomethyl ether (PGME)
Description: In order to examine the solubilities of TMOM-TGU produced in Example 2, TMOM-DTGU produced in Example 4, and TMOM-GU as Comparative Example, these compounds were dissolved in propylene glycol 1-monomethyl ether (PGME) or propylene glycol 1-monomethyl ether 2-acetate (PGMEA), each of which is a solvent commonly used in, for example, production processes for semiconductor devices.

Solubility (g/100 g-PGMEA)	Solubility (g/100 g-PGME)	solubility in a solvent (in words) (conclusion from Table 1 (PGME, PGMEA))	Compound
25	20		COCN1C(=S)N(COC)C2C1N(COC)C(=S)N2COC (stereo not shown) [Example 4, 1,3,4,6-tetrakis(methoxymethyl)dithioglycoluril]
100	100	particularly excellent solubility	COCN1C(=O)N(COC)C2C1N(COC)C(=S)N2COC (stereo not shown) [Example 2, 1,3,4,6-tetrakis(methoxymethyl)monothioglycoluril]
12.5	20		COCN1C(=O)N(COC)C2C1N(COC)C(=O)N2COC (stereo not shown) [Comparative Example, 1,3,4,6-tetrakis(methoxymethyl)glycoluril, reference compound]
